Measured values taken from ChEMBL document CHEMBL3639122, “Heteroarylcarboxylic acid ester derivative” (2015).
pKi: −log10 of the molar value.

Columns and labels:
Serine protease 1 = Serine protease 1 (Homo sapiens, UniProt P07477); assay: Inhibition Assay: Using a 96 well plate (#3915, Costar), a test compound (25 μL) was mixed with 20 μM fluorescence enzyme substrate (Boc-Phe-Ser-Arg-AMC, 50 μL) mixed with 200 mM Tris-HCl buffer (pH 8.0), and human trypsin (Sigma, 25 μL) was added. Using a fluorescence plate reader fmax (Molecular Devices, Inc.), the reaction rate was measured from the time-course changes at excitation wavelength 355 nm and fluorescence wavelength 460 nm.
Enteropeptidase = Enteropeptidase (Homo sapiens, UniProt P98073); assay: Inhibition Assay: Using a 96 well plate (#3915, Costar), a test compound (25 μL), 400 mM Tris-HCl buffer (pH 8.0, 25 μL) and 0.5 mg/mL fluorescence enzyme substrate (Gly-Asp-Asp-Asp-Asp-Lys-β-Naphtylamide, 25 μL) were mixed, and recombinant human enteropeptidase (R&D Systems, Inc., 25 μL) was added. Using a fluorescence plate reader fmax (Molecular Devices, Inc.), the reaction rate was measured from the time-course changes at excitation wavelength 320 nm and fluorescence wavelength 405 nm.
Chain of Enteropeptidase (P98073 2-784 limits assumed): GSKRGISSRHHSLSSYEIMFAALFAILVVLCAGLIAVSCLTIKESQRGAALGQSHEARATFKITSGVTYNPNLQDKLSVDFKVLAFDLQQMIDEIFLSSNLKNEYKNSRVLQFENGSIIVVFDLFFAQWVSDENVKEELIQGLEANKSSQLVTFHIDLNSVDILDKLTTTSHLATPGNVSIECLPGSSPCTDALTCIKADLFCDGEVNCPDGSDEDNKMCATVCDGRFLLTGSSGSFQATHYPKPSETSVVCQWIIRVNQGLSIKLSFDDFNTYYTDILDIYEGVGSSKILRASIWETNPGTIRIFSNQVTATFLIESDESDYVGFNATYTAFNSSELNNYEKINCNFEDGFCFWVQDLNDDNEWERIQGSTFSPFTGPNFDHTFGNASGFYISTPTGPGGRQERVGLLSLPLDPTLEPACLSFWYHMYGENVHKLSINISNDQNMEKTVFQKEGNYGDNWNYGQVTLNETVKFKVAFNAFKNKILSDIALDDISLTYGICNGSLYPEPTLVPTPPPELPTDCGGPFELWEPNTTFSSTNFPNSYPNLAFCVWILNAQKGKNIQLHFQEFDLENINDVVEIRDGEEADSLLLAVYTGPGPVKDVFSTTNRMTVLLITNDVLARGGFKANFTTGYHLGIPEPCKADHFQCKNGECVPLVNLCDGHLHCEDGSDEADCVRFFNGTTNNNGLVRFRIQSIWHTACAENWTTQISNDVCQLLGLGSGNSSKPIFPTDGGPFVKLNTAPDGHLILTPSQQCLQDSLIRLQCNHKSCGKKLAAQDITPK
Chain of Enteropeptidase (P98073 785-1019 limits assumed): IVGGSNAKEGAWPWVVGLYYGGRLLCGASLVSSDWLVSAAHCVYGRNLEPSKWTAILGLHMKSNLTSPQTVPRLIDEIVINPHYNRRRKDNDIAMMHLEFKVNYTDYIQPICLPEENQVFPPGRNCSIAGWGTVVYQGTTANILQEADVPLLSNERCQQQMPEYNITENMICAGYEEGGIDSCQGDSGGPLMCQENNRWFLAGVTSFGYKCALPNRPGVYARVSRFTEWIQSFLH

Chain of Serine protease 1 (P07477 whole entry): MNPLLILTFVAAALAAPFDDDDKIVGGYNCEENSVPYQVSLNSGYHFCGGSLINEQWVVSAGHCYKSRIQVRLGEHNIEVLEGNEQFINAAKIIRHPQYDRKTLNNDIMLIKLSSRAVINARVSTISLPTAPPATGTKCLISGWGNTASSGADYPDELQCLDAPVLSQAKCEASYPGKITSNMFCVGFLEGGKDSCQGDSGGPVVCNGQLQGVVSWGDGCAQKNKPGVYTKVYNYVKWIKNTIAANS

Compound CCC(CC)(Cc1ccc(C(=O)Oc2ccc(C(=N)N)cc2F)s1)C(=O)N[C@@H](CCC(=O)O)C(=O)O has a pKi (Serine protease 1) of 8.70 and a pKi (Enteropeptidase) of 9.57.
